Measurements taken from US20060089410A1, “Combination of chemotherapeutic drugs for increasing antitumor activity” (Titan Pharmaceuticals, Inc., priority 2002, published 2006).

Experiments:
[1] = system: Calu-6 anaplastic lung carcinoma cells; assay: Crystal violet microtiter assay, Pivanex then cytotoxic drug, Calu-6; assay type: cell-based
Experimental: (§1) T24 Bladder transitional carcinoma cells, Calu-6 anaplastic lung carcinoma cells, and SK-MES-1 squamous lung cell carcinoma cell cultures were purchased from the American Type Culture Collection (Manassas, Va.). All cell lines were cultured in RPMI-1640 with 10% fetal calf serum. For culture in microtiter dishes, cells were plated at a density of 10^4 cells/well and incubated at 37° C., 5% CO2 overnight.
(§2) After overnight incubation, drugs were added to wells in quadruplicate and incubated for 6 to 96 hours in the presence or absence of the oxyalkylene containing compound. […] the media was removed, fresh media were added with cytotoxic drug, and the cultures were incubated for another 6 hours.
(§3) The wells were then washed and medium without drug was added to each well. Microtiter plates were subsequently incubated for an additional 3 days before cell density was determined by a Crystal Violet Assay. Some cultures were alternatively fixed in methanol and stained with hematoxylin and eosin (H&E) stain for 5 minutes prior to microphotography.
(§4) PIVANEX (pivaloyloxymethyl butyrate) was obtained from Titan Pharmaceuticals Inc. (South San Francisco, Calif.) and was admixed with 0.05% Intralipid™ (Fresenius Kabi, Clayton, N.C.) prior to addition to culture media. The cytotoxic drugs gemcitabine (Gemzar; Eli Lilly and Co., Indianapolis, Ind.), cisplatin (Platinol, Bristol-Myers Squibb Co., Princeton, N.J.), paclitaxel (Taxol; Bristol-Myers Squibb Co., Princeton, N.J.), and docetaxel (Taxotere, Aventis Pharmaceuticals Products, Inc., Bridgewater, N.J.) were studied with PIVANEX.
(§5) Cells in microtiter wells were rinsed with PBS and fixed in two volumes of 100% cold methanol for 5 minutes. One volume of 0.5% crystal violet in 20% methanol was added and the attached cells stained for 10 minutes. The cells were then washed and crystal violet was eluted with 0.1 N sodium citrate buffer and read on an ELISA plate reader at 490 nm.

[2] = system: H23 (NCI-H23) NSCLC cell line; assay: MTS growth inhibition assay, sequencing of Pivanex and docetaxel, H23; assay type: cell-based, human; conditions: after 24 hour exposure
c-Myc oncogene [3] = assay: c-Myc oncogene expression by RT-PCR, T24 cells; assay type: cell-based, human; conditions: for c-Myc oncogene expression: 96 hour exposure
Experimental: as §1, §2
(§6) Tumor cell culture mRNA was isolated by standard methods, and RT-PCR was conducted to determine levels of c-Myc oncogene expression. The c-Myc primer pair used for RT-PCR cycling was:
(§7) The c-Myc primer pair was cycled by the following program: 95° C. for 3 min., then 30 cycles of (95° C. for 1 min., then 55° C. for 1 min., then 72° C. for 1 min.) followed by holding temperature at 72° C. for 7 min. before ramping temperature to 4° C. Samples were analyzed quantitatively by 1% agarose gel electrophoresis and gel densitometry.

H522 NSCLC cell line = assay: MTS growth inhibition assay, sequencing of Pivanex and docetaxel, H522; assay type: cell-based, human; conditions: after 24 hour exposure
Experimental: Human Non-Small Cell Lung Carcinoma Cell Lines, H522 and NCI-H23, were evaluated for growth inhibitory activity of Pivanex, alone and in combination with the standard chemotherapeutic agent, docetaxel. Cells were treated for three days with Pivanex followed by 24 hours of exposure to docetaxel or the cells were treated for 24 hours with docetaxel followed by three days of exposure to Pivanex. The cell growth inhibition was judged at the end of the 4-day experiments by a standard staining technique using MTS tetrazolium vital stain. […]
Exponentially growing cells were harvested with trypsin (0.05%)/EDTA (0.02%) and re-suspended in fresh medium containing 10% FBS. […] Absorbance was documented on a Dynex HD microplate reader at a wavelength of 490 nm. IC50 values were determined by using the Prism® GraphPad software from 3 different tests, each of which involved 4 replicates for each dose determination. The data are presented as percent growth inhibition, where 0% represents the mean value in wells to which only vehicle (0.1% DMSO) was added and was calculated as follows: % Growth Inhibition=(1−(ODtest/ODvehicle))×100 where ODtest is the optical density of the tested sample, OD vehicle is the optical density of the vehicle in which each respected drug is dissolved. […]

c-Myc oncogene [4] = assay: c-Myc oncogene expression, SK-MES-1 cells; assay type: cell-based; conditions: SK-MES-1, 96 hours in culture
Experimental: as §1, §2, §6, §7

ras = assay: Oncogene expression after exposure of tumor cells; assay type: cell-based; conditions: 72-hour exposure, 10-50 μM
Description: (§8) The observed morphologic changes consistent with a more differentiated phenotype prompted investigation of oncogene expression following exposure to pivaloyloxymethyl butyrate.

p53 = assay: Oncogene expression after exposure of tumor cells; assay type: cell-based; conditions: 72-hour exposure, 10-50 μM
Description: as §8

c-myc = assay: Oncogene expression after exposure of tumor cells; assay type: cell-based; conditions: 72-hour exposure, 10-50 μM
Description: as §8

[5] = system: T24 Bladder transitional carcinoma cells; assay: Crystal violet microtiter assay, Pivanex then cytotoxic drug, T24; assay type: cell-based, human
Experimental: as §1, §2, §3, §4, §5

[6] = Pivanex 50 μM, gemcitabine 0 nM
[7] = Pivanex 100 μM, gemcitabine 0 nM

CCCC(=O)OCOC(=O)C(C)(C)C [Pivanex, pivaloyloxymethyl butyrate]
Calu-6 cancer cell viability (A^490 Absorbance) ([1]; Pivanex 10 μM, cisplatin 0 μM): 0.617
Calu-6 cancer cell viability (A^490 Absorbance) ([1]; Pivanex 10 μM, docetaxel 0 nM): 0.732
Calu-6 cancer cell viability (A^490 Absorbance) ([1]; Pivanex 10 μM, gemcitabine 0 nM): 0.617
Calu-6 cancer cell viability (A^490 Absorbance) ([1]; Pivanex 50 μM, cisplatin 0 μM): 0.577
Calu-6 cancer cell viability (A^490 Absorbance) ([1]; Pivanex 50 μM, docetaxel 0 nM): 0.553
Calu-6 cancer cell viability (A^490 Absorbance) [1, 6]: 0.577
Calu-6 cancer cell viability (A^490 Absorbance) ([1]; Pivanex 100 μM, cisplatin 0 μM): 0.284
Calu-6 cancer cell viability (A^490 Absorbance) [1, 7]: 0.284
cell growth with agent alone [2]: steep increase in H23 cell growth
c-Myc oncogene expression (c-Myc oncogene [3]; Pivanex 10 μM): 760 PCR units
c-Myc oncogene expression (c-Myc oncogene [3]; Pivanex 25 μM): 972 PCR units
c-Myc oncogene expression (c-Myc oncogene [3]; Pivanex 50 μM): 966 PCR units
c-Myc oncogene expression (c-Myc oncogene [3]; Pivanex 100 μM): 640 PCR units
c-Myc oncogene expression (c-Myc oncogene [3]; Pivanex 200 μM): 560 PCR units
concentrations (as low as) that decreased the expression of c-Myc oncogene (c-Myc oncogene [3]; T-24, 96 hours in culture): 10 to 50 µM
cell growth with agent alone (H522 NSCLC cell line): steep increase in H522 cell growth
concentrations (as low as) that decreased the expression of c-Myc oncogene (c-Myc oncogene [4]): 10 to 50 µM
ras expression (ras): significant suppression
p53 expression (p53): significant suppression
c-myc expression (c-myc): significant suppression
T24 cancer cell viability (A^490 Absorbance) ([5]; Pivanex 10 μM, cisplatin 0 μM): 0.48
T24 cancer cell viability (A^490 Absorbance) ([5]; Pivanex 25 μM, gemcitabine 0 nM): 0.479
T24 cancer cell viability (A^490 Absorbance) ([5]; Pivanex 50 μM, cisplatin 0 μM): 0.422
T24 cancer cell viability (A^490 Absorbance) [5, 6]: 0.455
T24 cancer cell viability (A^490 Absorbance) [5, 7]: 0.414
T24 cancer cell viability (A^490 Absorbance) ([5]; Pivanex 200 μM, gemcitabine 0 nM): 0.41
